Experimental findings from ChEMBL document CHEMBL6087477, “G9a/GLP Modulators: Inhibitors to Degraders” (J Med Chem, 2025) are described below.

Series [1] addresses T1, Histone-lysine N-methyltransferase EHMT2 (Homo sapiens, UniProt Q96KQ7).
T1 sequence (Q96KQ7 whole entry): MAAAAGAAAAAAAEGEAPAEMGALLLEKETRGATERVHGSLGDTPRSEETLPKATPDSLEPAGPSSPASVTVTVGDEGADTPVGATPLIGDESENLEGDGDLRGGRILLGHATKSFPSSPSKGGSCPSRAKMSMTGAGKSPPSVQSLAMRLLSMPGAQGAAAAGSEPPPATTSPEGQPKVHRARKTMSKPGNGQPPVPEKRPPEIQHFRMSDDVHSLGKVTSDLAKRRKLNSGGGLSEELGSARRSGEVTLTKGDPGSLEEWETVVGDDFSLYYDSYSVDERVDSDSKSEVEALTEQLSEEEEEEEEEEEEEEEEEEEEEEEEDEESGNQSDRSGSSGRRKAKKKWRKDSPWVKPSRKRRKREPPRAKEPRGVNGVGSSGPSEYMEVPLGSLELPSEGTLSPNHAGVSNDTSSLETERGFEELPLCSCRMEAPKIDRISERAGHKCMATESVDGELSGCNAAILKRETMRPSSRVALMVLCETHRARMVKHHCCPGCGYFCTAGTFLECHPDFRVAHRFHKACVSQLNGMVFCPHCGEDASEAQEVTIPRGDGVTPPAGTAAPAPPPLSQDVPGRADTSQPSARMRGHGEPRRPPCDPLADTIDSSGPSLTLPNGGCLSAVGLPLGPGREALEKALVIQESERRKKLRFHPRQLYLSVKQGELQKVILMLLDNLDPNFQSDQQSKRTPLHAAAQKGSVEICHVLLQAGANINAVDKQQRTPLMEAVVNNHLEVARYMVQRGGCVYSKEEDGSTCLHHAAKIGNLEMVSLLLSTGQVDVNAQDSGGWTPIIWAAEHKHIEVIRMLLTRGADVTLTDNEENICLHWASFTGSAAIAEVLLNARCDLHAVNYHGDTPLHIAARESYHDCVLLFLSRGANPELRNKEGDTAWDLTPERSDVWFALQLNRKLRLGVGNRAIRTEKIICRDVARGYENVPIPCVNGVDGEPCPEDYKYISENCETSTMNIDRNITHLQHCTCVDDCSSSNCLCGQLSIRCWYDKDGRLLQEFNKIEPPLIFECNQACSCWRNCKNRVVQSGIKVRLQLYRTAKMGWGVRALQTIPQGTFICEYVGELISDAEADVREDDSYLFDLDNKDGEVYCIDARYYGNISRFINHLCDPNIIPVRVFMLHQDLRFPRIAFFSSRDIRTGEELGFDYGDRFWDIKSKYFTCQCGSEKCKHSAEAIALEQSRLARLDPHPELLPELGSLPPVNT
Put plainly: Inhibition of G9a (unknown origin).

For series [2], the target named is T2, Histone-lysine N-methyltransferase EHMT1 (Homo sapiens, UniProt Q9H9B1).
T2 sequence (Q9H9B1 whole entry): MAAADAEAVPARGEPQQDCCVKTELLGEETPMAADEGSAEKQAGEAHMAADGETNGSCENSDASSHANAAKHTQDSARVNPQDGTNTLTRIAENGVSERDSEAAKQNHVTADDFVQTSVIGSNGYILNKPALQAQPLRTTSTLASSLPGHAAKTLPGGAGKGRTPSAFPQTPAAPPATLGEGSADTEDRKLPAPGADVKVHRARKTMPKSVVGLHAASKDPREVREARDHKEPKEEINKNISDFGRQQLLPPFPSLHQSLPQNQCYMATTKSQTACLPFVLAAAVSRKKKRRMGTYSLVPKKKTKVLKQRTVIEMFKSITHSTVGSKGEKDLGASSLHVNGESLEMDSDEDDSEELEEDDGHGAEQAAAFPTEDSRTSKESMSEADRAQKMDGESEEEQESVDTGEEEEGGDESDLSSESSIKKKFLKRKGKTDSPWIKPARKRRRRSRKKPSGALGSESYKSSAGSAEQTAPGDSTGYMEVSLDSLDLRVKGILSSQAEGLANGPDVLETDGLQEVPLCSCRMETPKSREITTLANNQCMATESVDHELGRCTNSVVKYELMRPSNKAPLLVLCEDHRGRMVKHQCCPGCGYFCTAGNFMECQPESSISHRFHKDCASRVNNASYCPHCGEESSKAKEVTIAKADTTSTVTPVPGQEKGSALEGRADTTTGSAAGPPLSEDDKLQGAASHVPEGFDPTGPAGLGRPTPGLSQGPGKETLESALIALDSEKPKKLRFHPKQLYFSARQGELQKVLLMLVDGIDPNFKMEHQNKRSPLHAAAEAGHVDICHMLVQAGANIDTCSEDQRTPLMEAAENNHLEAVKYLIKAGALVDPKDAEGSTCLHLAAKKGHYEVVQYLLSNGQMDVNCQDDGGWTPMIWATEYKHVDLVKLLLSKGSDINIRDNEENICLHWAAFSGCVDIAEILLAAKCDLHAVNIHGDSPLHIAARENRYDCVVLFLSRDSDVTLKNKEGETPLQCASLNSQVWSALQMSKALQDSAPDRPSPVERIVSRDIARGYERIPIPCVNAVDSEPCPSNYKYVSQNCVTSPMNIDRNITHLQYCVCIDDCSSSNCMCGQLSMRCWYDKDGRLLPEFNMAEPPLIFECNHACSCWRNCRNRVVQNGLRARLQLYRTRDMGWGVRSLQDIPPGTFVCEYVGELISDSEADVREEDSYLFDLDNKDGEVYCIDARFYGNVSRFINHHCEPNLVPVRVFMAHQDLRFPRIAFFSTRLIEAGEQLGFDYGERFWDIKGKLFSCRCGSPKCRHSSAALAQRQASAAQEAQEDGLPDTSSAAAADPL
As to the kind of experiment: Binding affinity to GLP (unknown origin) assessed as inhibition constant.

The target in series [3] is T1, Histone-lysine N-methyltransferase EHMT2. Put plainly: Binding affinity to G9a (unknown origin) assessed as inhibition constant.
Series [4] has as its system MCF7. Put plainly: Cytotoxicity against human MCF7 cells. Format: functional, cell-based.
Series [5] is described as follows: Antiproliferative activity against human WSU-FSCCL cells assessed as reduction in cell viability. The class given is functional, cell-based.
In another series the test system is DB. As to the kind of experiment: Antiproliferative activity against human DB cells assessed as reduction in cell viability. The class given is functional, cell-based.
The next series has as its system SU-DHL-8. As to the kind of experiment: Antiproliferative activity against human SU-DHL-8 cells assessed as reduction in cell viability. The class given is functional, cell-based.
The test system of the next series is T47D. As to the kind of experiment: Antiproliferative activity against human T47D cells assessed as reduction in cell viability by sulforhodamine B assay. Format: functional, cell-based. Background: The SRB assay estimates cell density from bound dye.
A further series deals with SK-BR-3. Put plainly: Antiproliferative activity against human SK-BR-3 cells assessed as reduction in cell viability by sulforhodamine B assay. Format: functional, cell-based.
Series [6] in a line: Antiproliferative activity against human SC1 cells assessed as reduction in cell viability. The class given is functional, cell-based. The following applies: SC-1.
For series [7], the system named is MCF7. As to the kind of experiment: Antiproliferative activity against human MCF7 cells assessed as reduction in cell viability by sulforhodamine B assay. Format: functional, cell-based.
Series [8] is described as follows: Antiproliferative activity against human WILL-1 cells assessed as reduction in cell viability. Format: functional, cell-based.
Another series has as its system DOHH-2. Put plainly: Antiproliferative activity against human DOHH-2 cells assessed as reduction in cell viability. Format: functional, cell-based.
In series [9] the target is T2, Histone-lysine N-methyltransferase EHMT1. Put plainly: Inhibition of GLP (unknown origin).
Series [10] is described as follows: Half life in Balb/c mouse at 3 mg/kg, iv. The class given is ADME, organism-based. The settings on record: in vivo.
Series [11] is described as follows: Microsomal stability in human liver microsomes assessed as half life measured for incubated upto 60 mins by LC-MS/MS analysis. The class given is ADME, Microsome.
The nature of series [12]: Microsomal stability in mouse liver microsomes assessed as half life incubated upto 60 mins by LC-MS/MS analysis. The class given is ADME, Microsome. A general note: Liver microsomes are vesicles of endoplasmic reticulum, rich in cytochrome P450 enzymes.
For series [13], the target named is T1, Histone-lysine N-methyltransferase EHMT2. Put plainly: Inhibition of G9a (unknown origin) using H3 as peptide substrate measured after 20 mins by fluorescence based analysis.
The target of another series is hERG (KCNH2) (Homo sapiens, UniProt Q12809). As to the kind of experiment: Inhibition of hERG at 30 uM relative to control. Format: toxicity. A general note: The hERG channel carries a current that helps repolarise heart muscle cells.
The nature of series [14]: Cmax in mouse at 10 mg/kg, po. Format: ADME, organism-based. The settings on record: in vivo.
Series [15] has as its target T2, Histone-lysine N-methyltransferase EHMT1. As to the kind of experiment: Inhibition of GLP (unknown origin) measured after 20 mins by fluorescence based analysis.

Each structure is given as a SMILES string. A value given as a limit tells only on which side of the number the result lay.

Sequence of hERG (KCNH2) (Q12809 whole entry): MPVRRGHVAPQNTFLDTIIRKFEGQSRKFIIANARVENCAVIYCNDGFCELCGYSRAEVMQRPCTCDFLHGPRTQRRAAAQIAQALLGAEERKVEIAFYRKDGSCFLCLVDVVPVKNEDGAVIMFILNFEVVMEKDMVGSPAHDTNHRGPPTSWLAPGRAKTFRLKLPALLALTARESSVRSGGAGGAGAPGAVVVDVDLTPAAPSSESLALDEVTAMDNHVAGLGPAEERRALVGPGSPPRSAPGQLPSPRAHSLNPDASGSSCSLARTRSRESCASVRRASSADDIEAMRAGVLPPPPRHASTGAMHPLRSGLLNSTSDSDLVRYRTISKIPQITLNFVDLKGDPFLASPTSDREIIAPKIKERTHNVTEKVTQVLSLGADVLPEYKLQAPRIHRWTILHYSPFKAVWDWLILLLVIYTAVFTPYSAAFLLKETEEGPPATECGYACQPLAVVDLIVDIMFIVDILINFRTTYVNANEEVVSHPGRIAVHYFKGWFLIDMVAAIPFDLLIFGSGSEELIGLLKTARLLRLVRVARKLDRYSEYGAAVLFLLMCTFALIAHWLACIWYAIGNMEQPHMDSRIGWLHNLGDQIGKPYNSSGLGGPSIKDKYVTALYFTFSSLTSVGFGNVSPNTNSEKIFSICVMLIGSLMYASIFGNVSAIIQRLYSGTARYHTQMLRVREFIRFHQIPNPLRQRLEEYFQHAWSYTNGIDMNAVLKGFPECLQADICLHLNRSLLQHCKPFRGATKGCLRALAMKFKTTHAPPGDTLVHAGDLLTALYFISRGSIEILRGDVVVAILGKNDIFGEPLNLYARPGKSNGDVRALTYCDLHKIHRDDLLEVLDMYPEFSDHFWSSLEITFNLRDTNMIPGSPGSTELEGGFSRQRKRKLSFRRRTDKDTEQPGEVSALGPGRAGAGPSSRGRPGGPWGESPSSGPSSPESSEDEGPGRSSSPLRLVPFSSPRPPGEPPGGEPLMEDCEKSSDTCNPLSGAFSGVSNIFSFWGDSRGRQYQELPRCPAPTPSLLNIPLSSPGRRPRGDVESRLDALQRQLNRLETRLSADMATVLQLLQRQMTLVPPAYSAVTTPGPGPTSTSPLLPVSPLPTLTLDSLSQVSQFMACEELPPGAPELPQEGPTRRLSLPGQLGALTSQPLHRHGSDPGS

`COc1cc2c(NC3CCN(C)CC3)nc(N3CCCN(C)CC3)nc2cc1OCCOCCN(C)C`: in series [1], the 50% inhibitory concentration (IC50) was less than 15 nM. Further, the Ki was 15 nM in series [2] and 9 nM in [3].
`COc1cc2c(NC3CCN(C(C)C)CC3)nc(C3CCCCC3)nc2cc1OCCCN1CCCC1`: in the series with MCF7 [4], the EC50 came to 7600 nM.
For the molecule `COc1cc2nc(N3CCN(C)CC3)nc(NC3CCN(Cc4ccccc4)CC3)c2cc1OC`, the IC50 in series [5] was 3400 nM; with DB, less than 1000 nM; in the series on SU-DHL-8 it was less than 1000 nM; in the series with T47D, 8500 nM; in the series with SK-BR-3, 7700 nM; in series [6], 3700 nM. Further, the 50% inhibitory concentration (IC50) came out at 7700 nM with MCF7 [7], 5600 nM in series [8] and 3300 nM in the series with DOHH-2.
As for `COc1cc2c(NC3CCN(C(C)C)CC3)nc(N3CCOCC3)nc2cc1OCCCN1CCCC1`, in [9], the IC50 was less than 2.5 nM.
Turning to `COc1cc2c(NC3CCN(C(C)C)CC3)cc(C3CCCCC3)nc2cc1OCCCN1CCCC1`, in [9], the IC50 was found to be 0.7 nM.
As for `COc1cc2c(NC3CCN(C4CC4)CC3)cc(-c3ccc(C)o3)nc2cc1OCCCN1CCCC1`, the half-life is 24.2 h in series [10], greater than 2.4 h in series [11] and 0.6 h in series [12]. In series [9], this molecule showed an IC50 of 22 nM.
For `COc1cc2c(NC3CCN(C)CC3)cc(-c3ccc(C)o3)nc2cc1OCCCN1CCCC1`, in that order: 10.4 h, greater than 2.4 h, 0.1 h and 8 nM.
As to `CNc1cc(C)nc(Nc2ccc(OC)c(C3=CCNCCC3)c2)n1`, the half-inhibitory concentration (IC50) in [13] was 32.3 nM.
As for `COc1cc2c(cc1C1=CCN(C)CCC1)N=C(N)C21CCC1`, the inhibition at 30 µM against hERG (KCNH2) came out at 1%. The molecule further had an IC50 in [13] of 75.7 nM.
`Cc1c(C(=O)N[C@@H](CCC2CC2)C(=O)Nc2ccc(C#N)cc2)[nH]c2c1C(=O)CC(C)(C)C2` returned an IC50 in [9] of 53 nM. Besides, in series [14], the concentration peaked (Cmax) at 42.4 µM.
Molecule `CN1C(=O)[C@]23C[C@]4([C@]56C[C@]78SS[C@](CO)(C(=O)N7[C@H]5Nc5ccccc56)N(C)C8=O)c5ccccc5N[C@@H]4N2C(=O)[C@@]1(CO)SS3` displayed an IC50 in series [1] of 1700 nM.
Turning to `COc1cc2c(N(C)C3CCN(C(C)C)CC3)nc(C3CCCCC3)nc2cc1OCCCN1CCCC1`, the half-inhibitory concentration (IC50) in [1] was 5 nM; in series [9] it was greater than 10 nM.
In the case of `CN1C(=O)C2C[C@]3([C@]45CC6C(=O)N(C)[C@@H](CO)C(=O)N6[C@H]4Nc4ccccc45)c4ccccc4N[C@@H]3N2C(=O)[C@@H]1CO` (some centres not stated), in series [1], the 50% inhibitory concentration (IC50) was greater than 50000 nM.
Molecule `CN1C(=O)C2C[C@]3([C@]45CC6C(=O)N(C)[C@H](CO)C(=O)N6[C@H]4Nc4ccccc45)c4ccccc4N[C@@H]3N2C(=O)[C@H]1CO` (some centres not stated) showed an IC50 in [1] greater than 50000 nM.
Take `COc1cc2c(cc1C1=CCNCCC1)N=C(N)C21CCC1`: the inhibition at 30 µM on hERG (KCNH2) was determined as 5%. For the same molecule, the half-maximal inhibitory concentration (IC50) in series [13] and in series [15] was 33.9 nM each time.
Turning to `CCN(c1cc(-c2ccc(CN3CCOCC3)cc2)cc(C(=O)NCc2c(C)cc(C)[nH]c2=O)c1C)C1CCOCC1` [TAZEMETOSTAT], in series [1], 15 nM corresponded to half-maximal inhibition (IC50).

By IC50 is commonly meant the point on the concentration scale where inhibition reaches its midpoint. What is called Ki is a measure of affinity in units of concentration, obtained from inhibition or displacement. The term EC50 denotes the concentration needed to bring the measured effect to its halfway point. Lower therefore signals higher potency in that assay. What is called half-life is how long it takes for the measured level to halve. The term inhibition denotes the relative decrease from the control value, in per cent. Higher therefore signals a strong effect. The Cmax is the maximum level reached in the sampled fluid or tissue.
